According to US20070093520A1, “Method of treatment of diarrhea-predominant irritable bowel syndrome in a subject” (priority 2005, published 2007):

System: diarrhea-predominant IBS subjects
Assay type: in vivo, human
Protocol: The study was performed in approximately 150 study centers. Approximately 1600 eligible subjects were to be given cilansetron 2 mg TID. At Visit 1, pre-treatment assessments were conducted. […] Subjects were to return to the study site one month later for Visit 3 (Day 31) for their first interim assessment. […] All subjects who discontinued from the study were to have the same post-study assessments required at Visit 7 performed at their early termination visit. […]
Stool specimens were analyzed at every visit for occult blood. An independent GERB had been established to provide advice on GI AEs during the course of the study.
Adverse events were assessed at Baseline, at each clinic visit, and at the end of the study (Month 12 or the early termination visit). All AEs, which occurred during the study were followed up in accordance with good medical practice until resolved or judged no longer clinically significant, or if a condition was chronic, until fully characterized. Adverse events could occur in the specified follow-up period and, regardless of the interval since the last administration of the study medication, were treated in the same manner as an AE which occurred during the treatment with study medication. Each AE was evaluated for duration, severity, seriousness, and causal relationship to the investigational drug. The action taken and the outcome were also recorded.
Specifically, subjects who were lost to follow-up and had no post-Baseline contact with the site were excluded from the Safety population. The subjects who discontinued from the study due to lost to follow-up were identified based on the information collected on the study termination CRF page.
After the pretreatment assessment at Visit 1 (Days […] to −3), subjects were to return to the study site for a Baseline assessment and start the treatment at Visit 2 (Day 1).
For the by time-interval analyses of disposition, prevalence of AEs, and of markedly abnormal and predefined changes in laboratory values, vital signs, and ECGs, the following interval windows were used:
Adverse events that were already present prior to the first dose of cilansetron study medication but increased in severity afterwards were considered as treatment-emergent.
The 5% cutoff point was based on the incidence within higher level terms.
Subjects were counted at most once for each primary system organ class and preferred term. Serious AEs that resolved prior to receiving study medication or occurred more than 30 days after the last dose of study medication were not included in the incidence tables. A listing of all SAEs is presented; SAEs with onset prior to receiving study medication or more than 30 days after discontinuation of study medication were flagged. The listing presents lower level term and preferred term of the SAE, severity, action taken, outcome, and relationship of the SAE, start and stop date of the SAE, study day of onset of the SAE, age, race, and sex.

[1] = 2 mg, Safety Population, 3008, system organ class
[2] = 2 mg, Safety Population, 3008, under Blood and Lymphatic System Disorders
[3] = 2 mg, Safety Population, 3008, under Congenital, Familial and Genetic Disorders
[4] = 2 mg, Safety Population, 3008, under Ear and Labyrinth Disorders
[5] = 2 mg, Safety Population, 3008, under Endocrine Disorders
[6] = 2 mg, Safety Population, 3008, under Eye Disorders
[7] = 2 mg, Safety Population, 3008, under Hepatobiliary Disorders
[8] = 2 mg, Safety Population, 3008, under Immune System Disorders
[9] = 2 mg, Safety Population, 3008, under Neoplasms Benign, Malignant and Unspecified

With `Cc1nccn1C[C@H]1CCc2c(c3cccc4c3n2CCC4)C1=O` [cilansetron, (R)-(−)-4,5,6,8,9,10-hexahydro-10-[(2-methyl-1H-imidazol-1-yl)methyl]-11H-pyrido-[3,2,1-jk]-carbazol-11-one] the “TEAE incidence: Influenza Viral Infections” value was 51 (4%) n (%), the “TEAE incidence: Scrotal Disorders NEC*” value (2 mg, Safety Population, 3008) was 1 (<1%) n (%) and the “TEAE incidence: Scrotal Swelling*” value (2 mg, Safety Population, 3008) was 1 (<1%) n (%). The “TEAE incidence: Vaginal Haemorrhage*” value (2 mg, Safety Population, 3008) was 1 (<1%) n (%), the “TEAE incidence: Vulvovaginal Disorders NEC*” value (2 mg, Safety Population, 3008) was 1 (<1%) n (%) and the “TEAE incidence: Blood and Lymphatic System Disorders” value [1] was 13 (<1%) n (%). For the same molecule, the “TEAE incidence: Congenital, Familial and Genetic Disorders” value [1] was 3 (<1%) n (%), the “TEAE incidence: Ear and Labyrinth Disorders” value [1] was 22 (2%) n (%) and the “TEAE incidence: Endocrine Disorders” value [1] was 7 (<1%) n (%). For the same molecule, the “TEAE incidence: Eye Disorders” value [1] was 18 (1%) n (%), the “TEAE incidence: Hepatobiliary Disorders” value [1] was 13 (<1%) n (%) and the “TEAE incidence: Immune System Disorders” value [1] was 23 (2%) n (%). For the same molecule, the “TEAE incidence: Neoplasms Benign, Malignant and Unspecified (Incl Cysts and Polyps)” value [1] was 17 (1%) n (%), the “TEAE incidence: Pregnancy, Puerperium and Perinatal Conditions” value [1] was 2 (<1%) n (%) and the “TEAE incidence: Social Circumstances” value [1] was 3 (<1%) n (%). The “TEAE incidence: Surgical and Medical Procedures” value [1] was 2 (<1%) n (%), the “TEAE incidence: Vascular Disorders” value [1] was 32 (2%) n (%) and the “TEAE incidence: Anaemia Deficiencies” value [2] was 1 (<1%) n (%). For the same molecule, the “TEAE incidence: Anaemia NOS” value [2] was 5 (<1%) n (%), the “TEAE incidence: Anaemia Vitamin B12 Deficiency” value [2] was 1 (<1%) n (%) and the “TEAE incidence: Anaemias NEC” value [2] was 7 (<1%) n (%). For the same molecule, the “TEAE incidence: Anisocytosis” value [2] was 1 (<1%) n (%), the “TEAE incidence: Eosinophilia” value [2] was 2 (<1%) n (%) and the “TEAE incidence: Hypochromic Anaemia” value [2] was 1 (<1%) n (%). For the same molecule, the “TEAE incidence: Leukocytoses NEC” value [2] was 4 (<1%) n (%), the “TEAE incidence: Leukocytosis” value [2] was 2 (<1%) n (%) and the “TEAE incidence: Leukopenia NOS” value [2] was 2 (<1%) n (%). The “TEAE incidence: Leukopenias NEC” value [2] was 2 (<1%) n (%), the “TEAE incidence: Neutropenia” value [2] was 1 (<1%) n (%) and the “TEAE incidence: Neutropenias” value [2] was 1 (<1%) n (%). For the same molecule, the “TEAE incidence: Neutrophilia” value [2] was 2 (<1%) n (%), the “TEAE incidence: Normochromic Normocytic Anaemia” value [2] was 1 (<1%) n (%) and the “TEAE incidence: Poikilocytosis” value [2] was 1 (<1%) n (%). The “TEAE incidence: Red Blood Cell Abnormal Findings NEC” value [2] was 1 (<1%) n (%), the “TEAE incidence: Secondary Thrombocythaemias” value [2] was 1 (<1%) n (%) and the “TEAE incidence: Thrombocythaemia” value [2] was 1 (<1%) n (%). The “TEAE incidence: Congenital Claw Toe” value [3] was 1 (<1%) n (%), the “TEAE incidence: Musculoskeletal and Connective Tissue Disorders of Limbs Congenital” value [3] was 1 (<1%) n (%) and the “TEAE incidence: Pigmented Naevus” value [3] was 2 (<1%) n (%). The “TEAE incidence: Skin and Subcutaneous Tissue Disorders Congenital NEC” value [3] was 2 (<1%) n (%), the “TEAE incidence: Ear Disorders NEC” value [4] was 3 (<1%) n (%) and the “TEAE incidence: Ear Pain” value [4] was 3 (<1%) n (%). The “TEAE incidence: Hyperacusia” value [4] was 1 (<1%) n (%), the “TEAE incidence: Hyperacusis” value [4] was 1 (<1%) n (%) and the “TEAE incidence: Inner Ear Disorder NOS” value [4] was 1 (<1%) n (%). The “TEAE incidence: Inner Ear Disorders NEC” value [4] was 1 (<1%) n (%), the “TEAE incidence: Inner Ear Signs and Symptoms” value [4] was 18 (1%) n (%) and the “TEAE incidence: Tinnitus” value [4] was 8 (<1%) n (%). The “TEAE incidence: Vertigo” value [4] was 10 (<1%) n (%), the “TEAE incidence: Vertigo Positional” value [4] was 1 (<1%) n (%) and the “TEAE incidence: Acquired Hypothyroidism” value [5] was 3 (<1%) n (%). The “TEAE incidence: Acute and Chronic Thyroiditis” value [5] was 1 (<1%) n (%), the “TEAE incidence: Goitre” value [5] was 2 (<1%) n (%) and the “TEAE incidence: Thyroid Disorders NEC” value [5] was 2 (<1%) n (%). The “TEAE incidence: Thyroid Hyperfunction Disorders” value [5] was 2 (<1%) n (%), the “TEAE incidence: Thyroid Hypofunction Disorders” value [5] was 3 (<1%) n (%) and the “TEAE incidence: Thyroid Neoplasms” value [5] was 1 (<1%) n (%). For the same molecule, the “TEAE incidence: Thyroid Nodule” value [5] was 1 (<1%) n (%), the “TEAE incidence: Thyroiditis NOS” value [5] was 1 (<1%) n (%) and the “TEAE incidence: Thyrotoxicosis” value [5] was 2 (<1%) n (%). For the same molecule, the “TEAE incidence: Amaurosis Fugax” value [6] was 1 (<1%) n (%), the “TEAE incidence: Blindness (Excl Colour Blindness)” value [6] was 1 (<1%) n (%) and the “TEAE incidence: Cataract Unilateral” value [6] was 1 (<1%) n (%). The “TEAE incidence: Cataracts (Excl Congenital)” value [6] was 1 (<1%) n (%), the “TEAE incidence: Conjunctival Haemorrhage” value [6] was 1 (<1%) n (%) and the “TEAE incidence: Conjunctival and Corneal Bleeding and Vascular Disorders” value [6] was 1 (<1%) n (%). For the same molecule, the “TEAE incidence: Conjunctivitis” value [6] was 1 (<1%) n (%), the “TEAE incidence: Dry Eye NOS” value [6] was 1 (<1%) n (%) and the “TEAE incidence: Eye Irritation” value [6] was 1 (<1%) n (%). The “TEAE incidence: Eye Pain” value [6] was 2 (<1%) n (%), the “TEAE incidence: Eyelid Oedema” value [6] was 2 (<1%) n (%) and the “TEAE incidence: Glaucoma NOS” value [6] was 1 (<1%) n (%). The “TEAE incidence: Glaucomas (Excl Congenital)” value [6] was 1 (<1%) n (%), the “TEAE incidence: Lacrimal Disorders” value [6] was 1 (<1%) n (%) and the “TEAE incidence: Ocular Disorders NEC” value [6] was 2 (<1%) n (%). For the same molecule, the “TEAE incidence: Ocular Sensation Disorders” value [6] was 1 (<1%) n (%), the “TEAE incidence: Partial Vision Loss” value [6] was 2 (<1%) n (%) and the “TEAE incidence: Photophobia” value [6] was 1 (<1%) n (%). The “TEAE incidence: Retinal Bleeding and Vascular Disorders (Excl Retinopathy)” value [6] was 1 (<1%) n (%), the “TEAE incidence: Retinal Detachment” value [6] was 1 (<1%) n (%) and the “TEAE incidence: Retinal Structural Change, Deposit and Degeneration” value [6] was 1 (<1%) n (%). The “TEAE incidence: Retinal Vascular Disorder NOS” value [6] was 1 (<1%) n (%), the “TEAE incidence: Retinitis NOS” value [6] was 1 (<1%) n (%) and the “TEAE incidence: Vision Abnormal NOS Exacerbated” value [6] was 1 (<1%) n (%). The “TEAE incidence: Vision Blurred” value [6] was 1 (<1%) n (%), the “TEAE incidence: Visual Disorders NEC” value [6] was 3 (<1%) n (%) and the “TEAE incidence: Visual Disturbance NOS” value [6] was 3 (<1%) n (%). The “TEAE incidence: Biliary Dyskinesia” value [7] was 1 (<1%) n (%), the “TEAE incidence: Cholecystitis NOS” value [7] was 2 (<1%) n (%) and the “TEAE incidence: Cholecystitis and Cholelithiasis” value [7] was 3 (<1%) n (%). For the same molecule, the “TEAE incidence: Cholelithiasis” value [7] was 1 (<1%) n (%), the “TEAE incidence: Cholestasis and Jaundice” value [7] was 1 (<1%) n (%) and the “TEAE incidence: Gallbladder Disorders NEC” value [7] was 1 (<1%) n (%). For the same molecule, the “TEAE incidence: Hepatic Cyst NOS” value [7] was 1 (<1%) n (%), the “TEAE incidence: Hepatic Disorder NOS” value [7] was 2 (<1%) n (%) and the “TEAE incidence: Hepatic and Hepatobiliary Disorders NEC” value [7] was 2 (<1%) n (%). The “TEAE incidence: Hepatitis NOS” value [7] was 3 (<1%) n (%), the “TEAE incidence: Hepatobiliary Neoplasms Benign” value [7] was 1 (<1%) n (%) and the “TEAE incidence: Hepatocellular Damage and Hepatitis NEC” value [7] was 5 (<1%) n (%). For the same molecule, the “TEAE incidence: Jaundice Cholestatic” value [7] was 1 (<1%) n (%), the “TEAE incidence: Liver Fatty” value [7] was 2 (<1%) n (%) and the “TEAE incidence: Allergic Conditions NEC” value [8] was 8 (<1%) n (%). For the same molecule, the “TEAE incidence: Allergies to Foods, Food Additives, Drugs and Other Chemicals” value [8] was 3 (<1%) n (%), the “TEAE incidence: Atopic Disorders” value [8] was 12 (<1%) n (%) and the “TEAE incidence: Drug Hypersensitivity” value [8] was 3 (<1%) n (%). For the same molecule, the “TEAE incidence: Hypersensitivity NOS” value [8] was 7 (<1%) n (%), the “TEAE incidence: Seasonal Allergy” value [8] was 12 (<1%) n (%) and the “TEAE incidence: Benign Ureteric Neoplasm NOS” value [9] was 1 (<1%) n (%). The “TEAE incidence: Bladder Neoplasm NOS” value [9] was 1 (<1%) n (%), the “TEAE incidence: Breast Cancer NOS*” value [9] was 1 (<1%) n (%) and the “TEAE incidence: Breast and Nipple Neoplasms Malignant*” value [9] was 1 (<1%) n (%). For the same molecule, the “TEAE incidence: Cartilage Neoplasms Benign” value [9] was 1 (<1%) n (%) and the “TEAE incidence: Enchondromatosis” value [9] was 1 (<1%) n (%).
